According to patent publication US8143403B2 (Bristol-Myers Squibb Company, priority 2008, dated 2012):

How the values were obtained:
[1] = target: T1, CGRP receptors (SK-N-MC cell membranes) (Homo sapiens, UniProt O60894+Q16602); assay: Saturation/Scatchard analysis of [125I]-CGRP binding to SK-N-MC cell membranes
T1 construct: Crude membranes were prepared from SK-N-MC cells expressing CGRP receptors; endogenous in cells; host or cells: SK-N-MC cells (crude membranes)
Description: FIG. 1. [^125I]-CGRP Saturation/Scatchard Analysis. [^125I]-CGRP saturation using SK-N-MC membranes in the absence (filled squares) and presence (all others) of CGRP antagonist example 20. Inset depicts a Scatchard plot of same data.
Saturation/Scatchard Analysis. The nature of the interaction between the human CGRP peptide and example 20 was studied in detail using saturation binding experiments. The binding of increasing concentrations of [^125I]-CGRP to SK-N-MC cell membranes was measured in the absence (control condition) and in the presence of 300 pM and 600 pM example 20. Saturation data were analyzed using a one site binding equation to estimate apparent equilibrium dissociation constant (Kd) and the maximum number of binding sites (Bmax) (Prizm v4.0, Graphpad). The impact of the addition of example 20 to the binding parameters (Kd, Bmax) of [^125I]-CGRP binding was measured and compared. […] Example 20 was evaluated in 3 separate experiments (for representative dataset, see FIG. 1. [^125I]-CGRP Saturation/Scatchard Analysis). Functional Antagonism/Schild analysis. Agonist stimulation of CGRP receptor complex leads to cyclic AMP (adenosine 3′5′-cyclic monophosphate) production via Gs-dependent activation of an adenylate cyclase (Juaneda C et al., TiPS, 2000; 21:432-438). Consequently, CGRP receptor antagonists inhibit CGRP-induced cyclic AMP formation in SK-N-MC cells which natively express the CGRP receptor complex (Doods H et al., Br J Pharmacol, 2000; 129(3):420-423). Example 20 was evaluated for its ability to block CGRP induced cAMP formation using a commercially available cAMP HTRF kit (catalog number 62AM2PEC, CisBio International). […] The cells were lysed with lysis reagent and cAMP concentrations were determined by HTRF according to the manufacturer's instructions. A standard curve using known quantities of cAMP was evaluated in parallel to allow conversion of HTRF ratio to nM cAMP. The resulting curves were then evaluated using a Gaddum/Schild equation individually and with global fitting (Prizm v4.0, Graphpad). […]

[2] = target: T2, Human CGRP Receptor (Homo sapiens, UniProt O60894+Q16602); assay: Radioligand binding assay, [125I]-CGRP displacement on SK-N-MC membranes; settings: displacement of [125I]-CGRP (18 pM final), 2 h room temperature
T2 construct: Crude membranes were prepared from SK-N-MC cells expressing CGRP receptors; endogenous in cells; host or cells: SK-N-MC cells (crude membranes)
Description: Tissue Culture. SK-N-MC cells were grown at 37° C. in 5% CO2 as a monolayer in medium consisting of MEM with Earle's salts and L-glutamine (Invitrogen) supplemented with 10% fetal bovine serum (Invitrogen).
Membrane Preparation. Crude membranes were prepared from SK-N-MC cells expressing CGRP receptors. The cells were rinsed twice with phosphate-buffered saline (155 mM NaCl, 3.3 mM Na2HPO4, 1.1 mM KH2PO4, pH 7.4), and incubated for 5-10 min. at 4° C. in hypotonic lysis buffer consisting of 10 mM Tris (pH 7.4) and 5 mM EDTA. The cells were transferred from plates to polypropylene tubes (16×100 mm) and homogenized using a polytron. Homogenates were centrifuged at 32,000×g for 30 min. The pellets were resuspended in cold hypotonic lysis buffer with 0.1% mammalian protease inhibitor cocktail (Sigma) and assayed for protein concentration. The SK-N-MC homogenate was aliquoted and stored at −80° C. Radioligand Binding Assay. The compounds of invention were solubilized and carried through serial dilutions using 100% DMSO. Aliquots from the compound serial dilutions were further diluted 25 fold into assay buffer (50 mM Tris-Cl pH 7.5, 5 mM MgCl2, 0.005% Triton X-100) and transferred (volume 50 μl) into 96 well assay plates. [^125I]-CGRP (GE Healthcare or Perkin-Elmer) was diluted to 72 pM in assay buffer and a volume of 50 μl was added to each well. SK-N-MC membranes were thawed, diluted in assay buffer with fresh 0.1% mammalian protease inhibitor cocktail (Sigma), and re-homogenized. SK-N-MC homogenate (7 μg/well) was added in a volume of 100 μl. The assay plates were then incubated at room temperature for 2 h. Assays were stopped by addition of excess cold wash buffer (50 mM Tris-Cl pH 7.5, 0.1% BSA) immediately followed by filtration over glass fiber filters (Whatman GF/B) previously soaked in 0.5% PEI. Non-specific binding was defined with 1 μM beta-CGRP (Bachem). Protein bound radioactivity was determined using a gamma or scintillation counter. The resulting data was analyzed using a four parameter competitive binding equation (XLfit v2.0) and the IC50 was defined as the concentration of a compound of invention required to displace 50% of radioligand binding. Final assay concentration of [^125I]-CGRP was 18 pM. […] All compounds of invention were evaluated in at least two separate experiments.

T1 sequence (Q16602 23-461): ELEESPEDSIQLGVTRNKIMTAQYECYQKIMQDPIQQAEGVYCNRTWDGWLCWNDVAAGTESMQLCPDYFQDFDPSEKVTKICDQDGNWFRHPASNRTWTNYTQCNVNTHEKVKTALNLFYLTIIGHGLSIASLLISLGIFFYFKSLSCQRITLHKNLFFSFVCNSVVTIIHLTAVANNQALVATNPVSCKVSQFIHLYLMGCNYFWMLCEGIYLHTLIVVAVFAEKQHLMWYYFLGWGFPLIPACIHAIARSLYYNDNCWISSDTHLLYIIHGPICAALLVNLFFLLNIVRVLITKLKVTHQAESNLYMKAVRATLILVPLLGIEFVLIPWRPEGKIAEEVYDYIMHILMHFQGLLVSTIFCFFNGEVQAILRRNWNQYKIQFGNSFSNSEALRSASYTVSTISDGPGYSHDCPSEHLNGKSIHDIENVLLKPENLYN
T1 sequence (O60894 27-148): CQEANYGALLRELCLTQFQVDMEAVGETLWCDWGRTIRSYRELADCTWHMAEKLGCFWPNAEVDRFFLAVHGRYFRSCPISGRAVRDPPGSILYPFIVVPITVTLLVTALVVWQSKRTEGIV
T2 sequence (Q16602 23-461): as the sequence (Q16602 23-461) above
T2 sequence (O60894 27-148): as the sequence (O60894 27-148) above

O=C(O[C@@H]1CC[C@@H](c2cccc(F)c2F)Cc2cccnc21)N1CCC(n2c(=O)[nH]c3ncccc32)CC1 [Example 20]
effect on maximum binding sites of [125I]-CGRP binding (Bmax) ([1]; 300 pM and 600 pM example 20 vs control): without significantly changing the maximum binding sites
effect on Kd of [125I]-CGRP binding ([1]; 300 pM and 600 pM example 20 vs control, 3 experiments): dose-dependently increased the Kd
mechanism of inhibition of [125I]-CGRP binding ([1]; saturation binding): competitive mechanism of inhibition
IC50 [2]: 0.12 nM
